According to US20160250221A1, “INHIBITORS OF FAPP2 AND USES THEREOF” (FONDAZIONE TELETHON, priority 2013, published 2016):
“Also recorded” adds a separate entry of the source.

Tests used:
[1] = system: HeLa cells; experiment: GSL synthesis by 3H-sphingosine metabolic labelling; type: cell-based
[2] = system: 3XHA-Gb3S and 3XHA-GM3S distribution; experiment: Immunofluorescence localization of HA-GM3S and HA-Gb3S; type: cell-based; settings: BFA 5 μg/ml 30 min
Description: All immunofluorescence experiments were performed as described previously^1,14. Images are confocal optical slices obtained using an LSM 710 (Zeiss) confocal microscope. Colocalization analysis was performed as described in^14 or by using an object-based colocalization method included in the JACoP v2.0 application for ImageJ^16. In brief, individual mini-stacks in nocodazole-treated cells were considered as objects, whose mass-center position was calculated after segmentation, the perfect coincidence of mass-center positions for two distinct labelling (i.e. Gb3S/TGN46, or GM3S/TGN46) in a single ministack was considered as a positive colocalization event.

[3] = molecular target: T1, FAPP2-HIS-SUMO-C-212 (Homo sapiens, UniProt Q96JA3); experiment: FRET GlcCer transfer assay with FAPP2-C212 (384-well); type: biochemical; settings: for inhibition of FAPP2 transfer activity: 50 uM compound
T1 construct: the recombinant FAPP2 protein is FAPP2-GLTP-C212 or FAPP2 Full-Length (FL)
T1 sequence (Q96JA3 310-519 limits assumed): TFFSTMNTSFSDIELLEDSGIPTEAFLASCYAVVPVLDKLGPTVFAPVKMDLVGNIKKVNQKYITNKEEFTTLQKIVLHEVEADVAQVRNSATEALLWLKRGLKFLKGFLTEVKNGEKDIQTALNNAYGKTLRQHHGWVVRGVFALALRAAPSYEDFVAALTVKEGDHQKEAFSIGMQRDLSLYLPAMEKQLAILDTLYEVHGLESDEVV
Description: (§1) FAPP2 transfer activity has been evaluated using Fluorescence Resonance Energy Transfer. The FRET assay involves mixing of acceptor vesicles (formed by sonication of 1,2-dioleoyl-sn-glycero-3-phosphocholine (DOPC) suspended in buffer) with donor vesicles containing TopFLUOR-labeled GlcCer (1 mole %) and Di1C18 used as quencher (3 mole %), and recombinant FAPP2 protein (0.5 uM). Recovery of emission intensity at 520 nm (excitation at 485 nm) occurs during FAPP2-mediated transfer of GlcosylCeramide from quenched donor vesicles to unquenched acceptor vesicles. The assay has been performed using FAPP2-GLTP-C212 or FAPP2 Full-Length (FL). In order to conduct the high throughput inhibitor screen, the transfer activity assay was adapted to a microplate format (384 well plate) and read using Synergy Neo HTS Multi-Mode Microplate Reader. First, mixture containing 30 ul of acceptor small unilamellar vesicles, FAPP2 transport protein, and drug in buffer was added to each well in triplicate and read for 1 min to calculate the fluorescence baseline. Then 30 ul donor vesicles were added to each well and read for 15 or 30 mins. Since the increase in fluorescence emission occurs exclusively in presence of FAPP2 transport, the inhibition rate of each compound is evaluated by its ability to decrease the fluorescence emission.

[4] = molecular target: T2, FAPP2-FL-SUMO (Homo sapiens, UniProt Q96JA3); experiment: FRET-based GlcCer transfer assay, Example 8 (96-well, full-length FAPP2); type: biochemical; settings: for competition with the GlcCer transfer activity of FAPP2: final concentration 10 uM
T2 construct: FAPP2-FL-SUMO (recombinant FAPP2 full length protein tagged with small ubiquitin-related modifier); made in house; host or cells: Rosetta cells (E. coli, own knowledge)
T2 sequence (Q96JA3 1-519): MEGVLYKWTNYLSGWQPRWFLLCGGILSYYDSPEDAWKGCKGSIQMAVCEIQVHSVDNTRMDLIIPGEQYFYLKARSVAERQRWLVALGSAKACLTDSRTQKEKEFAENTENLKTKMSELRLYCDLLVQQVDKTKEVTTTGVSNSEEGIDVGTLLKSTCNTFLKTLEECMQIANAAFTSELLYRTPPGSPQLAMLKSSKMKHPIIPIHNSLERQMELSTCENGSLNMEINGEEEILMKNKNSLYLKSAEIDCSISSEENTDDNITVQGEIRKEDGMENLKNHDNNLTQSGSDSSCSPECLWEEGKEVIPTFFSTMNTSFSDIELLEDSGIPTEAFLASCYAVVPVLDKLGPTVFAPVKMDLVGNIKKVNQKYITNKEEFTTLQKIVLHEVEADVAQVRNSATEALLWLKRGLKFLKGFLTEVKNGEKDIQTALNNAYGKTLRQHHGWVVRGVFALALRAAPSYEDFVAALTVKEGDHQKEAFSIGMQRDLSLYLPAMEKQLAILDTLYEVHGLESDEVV
Description: Specifically, acceptor vesicles (formed by sonication of 1,2-dioleoyl-sn-glycero-3-phosphocholine (DOPC) were suspended in 10 mM NaH2PO4 buffer, pH 7.4, containing 1 mM dithiothreitol and 1 mM EDTA) and were incubated with donor vesicles containing BODIPY-labeled GlcCer (1 or 2 mole %, as indicated) and Di1C18 used as quencher (3 mole %), and recombinant FAPP2 protein (at the indicated concentrations).
Recovery of emission intensity at 520 nm (excitation at 485 nm) occurred during protein-mediated transfer of GlcCer from quenched donor vesicles to unquenched acceptor vesicles.
Phlorizin and Dapagliflozin were resuspended in DMSO (100 mM). The assay was conducted at four different concentrations (1 mM, 500 uM, 200 uM, 100 uM). Both FAPP2 WT and FAPP2 W407A were used to highlight possible non-specific effects of the drugs on fluorescence emission. First, mixture that contained FAPP2, acceptor small unilamellar vesicles and drug in buffer were added to 96 well plates, the plate was immediately loaded into the plate reader. Following 2 sec of shaking, the fluorescence emission @520 nm (excitation 485 nm) was measured at 10 sec intervals for 5 mins to calculate the baseline fluorescence. Then, donor vesicles were added to each well and read again for the indicated time. The experiments were repeated at least 3 times and each measurement performed in triplicate.
To screen and identify small molecules for drug development for Fabry disease treatment, a miniaturized FRET-based in vitro screening assay was developed to screen for small molecules that can inhibit FAPP2. The miniaturized FRET-based in vitro screening assay tests the ability of FAPP2 to transfer GlcCer from donor to acceptor and identifies small molecules able to inhibit the transfer activity of FAPP2. The flFAPP2 was produced as Sumo-fusion protein and assayed in Rosetta cells.

[5] = molecular target: T3, FAPP2-FL-SUMO-HIS (Homo sapiens, UniProt Q96JA3); experiment: FRET GlcCer transfer assay with full-length FAPP2 (Example 9); type: biochemical; settings: 50 uM compound; FAPP2-FL-SUMO-HIS at 0.5 uM; measured for 15 mins
T3 construct: The assay has been performed using FAPP2-GLTP-C212 or FAPP2 Full-Length (FL); made in house; host or cells: Rosetta cells (E. coli, own knowledge)
T3 sequence (Q96JA3 1-519): T2 sequence (Q96JA3 1-519)
Description: as §1

[6] = system: ts045 VSV-G (VSVG) transport; type: cell-based; settings: dicoumarol 200 μM
[7] = FAPP2-C212 at 0.5 uM, measured for 30 mins

Structure (SMILES): C[C@H]1CCC/C=C/[C@@H]2C[C@H](O)C[C@H]2[C@H](O)/C=C/C(=O)O1 [BFA, Brefeldin A]
- Gb3 synthesis ([1]; BFA 5 μg/mL): decreased
- GM3 synthesis ([1]; BFA 5 μg/mL, parental cells): but not that of GM3
- GM3 synthesis ([1]; HeLa cells overexpressing GM3S (HeLa-GM3S), BFA 5 μg/mL): became sensitive
- redistribution of GM3S to the ER [2]: redistributed

Structure (SMILES): CCc1oc2ccccc2c1C(=O)c1cc(Br)c(O)c(Br)c1 [Benzbromarone]
- ranking as FAPP2 inhibitor in vitro [3]: one of the most potent FAPP2 inhibitors
- inhibition of FAPP2 transfer activity [3, 7]: 80%

Structure (SMILES): CCCCCCCCCCCCC/C=C/[C@@H](O)[C@H](COC1OC(CO)C(O)C(O)C1O)NC(=O)CCCCCCC (some centres unmarked) [C8-GlcCer]
- competition with the GlcCer transfer activity of FAPP2 [4]: able to inhibit transfer by competition
- competition with the GlcCer transfer activity of FAPP2 ([4]; listed as C8-G1Cer): competes

Structure (SMILES): CC(C)=CCC/C(C)=C/CC/C(C)=C/Cc1c(O)cc(C)c(C(=O)O)c1O [Grifolic Acid]
- ranking as FAPP2 inhibitor in vitro [3]: most active FAPP2 inhibitor in vitro
- effect on FAPP2-mediated GlcCer transfer ([3]; 50 uM, FAPP2-C212 at 0.5 uM, measured for 30 mins): significantly reduced
- effect on FAPP2-mediated GlcCer transfer ([3]; 100 uM, FAPP2-C212 at 0.5 uM, measured for 30 mins): significantly reduced

Structure (SMILES): O=C(O)Cn1nnc(-c2cc(N3CCC(Oc4cc(F)ccc4Br)CC3)no2)n1 [MK-8245]
- inhibition of FAPP2 transfer activity [5]: 40%

Structure (SMILES): O=C(CCc1ccc(O)cc1)c1c(O)cc(O)cc1O[C@@H]1O[C@H](CO)[C@@H](O)[C@H](O)[C@H]1O [Phlorizin]
- inhibition of GlcCer transfer activity of FAPP2 ([4]; four drug concentrations (100 uM, 200 uM, 500 uM, 1 mM)): can inhibit; also recorded: inhibits the GlcCer transfer

Structure (SMILES): O=C(Nc1cccc2c(=O)cc(-c3nn[nH]n3)oc12)c1ccc(OCCCCc2ccccc2)cc1 [Pranlukast]
- inhibition of FAPP2 transfer activity [3, 7]: 90%

Structure (SMILES): CCOc1cc(CC(=O)N[C@@H](CC(C)C)c2ccccc2N2CCCCC2)ccc1C(=O)O [Repaglinide]
- inhibition of FAPP2 transfer activity [5]: 50%

Structure (SMILES): Cc1cc(OCCCS(C)(=O)=O)cc(C)c1-c1cccc(COc2ccc3c(c2)OCC3CC(=O)O)c1 (centres unmarked) [TAK-875]
- effect on FAPP2-mediated GlcCer transfer ([3]; 100 uM, FAPP2 at 0.5 uM, measured for 15 mins): significantly reduced

Structure (SMILES): CCSc1ccc2c(c1)N(CCCN1CCN(C)CC1)c1ccccc1S2 [Thiethylperazine]
- inhibition of FAPP2 transfer activity [3, 7]: 60%

Structure (SMILES): COc1cc(C(=O)NS(=O)(=O)c2ccccc2C)ccc1Cc1cn(C)c2ccc(NC(=O)OC3CCCC3)cc12 [Zafirlukast]
- inhibition of FAPP2 transfer activity [3, 7]: 90%

Structure (SMILES): O=c1oc2ccccc2c(O)c1Cc1c(O)c2ccccc2oc1=O [dicoumarol]
- GM3 synthesis ([1]; dicoumarol 200 μM, 3 hours 3H-sphingosine pulse): strongly inhibited
- intra-Golgi progression of VSVG [6]: suppressed
